Assay: Human HepG2 cell viability assay in 384 well format
Type: toxicity, cell-based
Design: dose 125 nL, time 70.5 hour; concentration not given beside the values
Conditions: HepG2 cells, read-out: Inhibition

Row | Structure (SMILES) | cytotoxicity at 70.5 h
1 | CC(C)(C)C(NCC(=O)N1CCNC(=O)C1)c1ccccc1 (stereo not given) | -107%
2 | CCS(=O)(=O)NC(CCSC)C(=O)Nc1cccc(C)c1C (stereo not given) | -83.4%
3 | CNS(=O)(=O)c1ccc(CNC(=O)N(C)CC(C)C)cc1 | -94.7%
4 | Cc1cc(N2CCc3c(ncn3C)C2)n2nc(C(F)(F)F)nc2n1 | -105%
5 | Cc1noc(CS(=O)(=O)C(C)C(=O)N(C)c2ccccc2)n1 (stereo not given) | -23.3%
6 | CS(=O)(=O)CCCN(CCCO)C1CCc2ccccc21 (stereo not given) | -107%
7 | Cn1ncnc1CNc1ccccc1C(=O)NC(C)(C)C | -100%
8 | CS(=O)(=O)Cc1noc(CN2CCc3c(Cl)cccc3C2)n1 | -79.4%
9 | CNC(=O)c1ccc(OC)c(NCc2ncc(-c3cccs3)o2)c1 | -92.5%
10 | CCc1nn(C)c2[nH]nc(NC(=O)c3cccnc3OCC(C)C)c12 | -90.4%
11 | Cc1ccc(NC(=O)c2ncc(C(N)=O)cc2Cl)cc1F | -87.6%
12 | CC(C)c1ccc(NC(=O)c2ncc(C(N)=O)cc2Cl)cc1 | -86.1%
13 | CCS(=O)(=O)NC(CCSC)C(=O)Nc1ccccc1C (stereo not given) | -92%
14 | CC(C)n1cnnc1C1CCCN(S(=O)(=O)CC2CCCC2)C1 (stereo not given) | -106%
15 | CC(NCC(N)=O)c1c(F)cccc1Cl (stereo not given) | -85.6%
16 | CC(=O)Nc1ccc(C(=O)N(C)Cc2cccc(F)c2)s1 | -105%
17 | CCc1nn(C)c2[nH]nc(NC(=O)c3ccccc3COC)c12 | -101%
18 | Cc1cc(CNC(C)Cn2cncn2)ccc1Br (stereo not given) | -87.4%
19 | CC(=O)N1CCC(C(=O)NC2CCc3nccn3C2)CC1 (stereo not given) | -97.6%
20 | CNS(=O)(=O)c1ccc(CNC(=O)N(C)CC(O)COC)cc1 (stereo not given) | -74.7%
21 | CS(=O)(=O)NCCN(CCCO)C1CCc2ccccc21 (stereo not given) | -97.1%
22 | Cc1cc(CNc2ccccc2N2CCCCC2)no1 | -24%
23 | CN1CCN(c2ccc(Cl)cc2NC(=O)c2ccco2)CC1 | 12.6%
24 | COc1ccc(CSc2nnc(N)n2C2CC2)cc1F | 24.8%

Row | Structure (SMILES) | cytotoxicity at 70.5 h
25 | COc1ccc(C)cc1NS(=O)(=O)c1ccc(CCNC(C)=O)s1 | -4.06%
26 | CC(=O)NCCc1ccc(S(=O)(=O)Nc2ccc(C)cc2F)s1 | -2.14%
27 | CN(CCCNC(=O)C1CCCN(C(N)=O)C1)S(C)(=O)=O (stereo not given) | -9.57%
28 | COCCN1CCN(CC(O)c2ccc(C(F)(F)F)cc2)CC1 (stereo not given) | -7.3%
29 | CCOCCN1CCN(CC(O)c2ccc(C(F)(F)F)cc2)CC1 (stereo not given) | -0.521%
30 | CC(CO)NC(=O)c1ccc(NCc2ccccc2)cc1 (stereo not given) | -7%
31 | CCC(NC(=O)CCCNC(=O)OC)c1cc(F)ccc1F (stereo not given) | -3.13%
32 | CN1CCN(c2ccccc2NC(=O)NCCc2ccccc2)CC1 | -5.11%
33 | CCC(NC(=O)CNCC(F)(F)F)c1cc(F)ccc1F (stereo not given) | -6.5%
34 | CCC(NC(=O)NCC(=O)NC(C)C)c1cc(F)ccc1F (stereo not given) | -3.83%
35 | CC(C)c1ncc(Cl)c(C(=O)N2CCN3CCCCC3C2)n1 (stereo not given) | 36.2%
36 | CCCOc1cc(F)ccc1NC(=O)NCc1noc(C)n1 | -3.88%
37 | CN1CCN(c2ccccc2NC(=O)NCCc2ccc(O)cc2)CC1 | -6.51%
38 | CC(C)c1ncc(Cl)c(C(=O)N2CCCN3CCCC3C2)n1 (stereo not given) | -0.691%
39 | COCCOCC(=O)Nc1ccnn1-c1ccc(Cl)cc1 | -0.967%
40 | CCC(C)(C)NC(=O)Cn1nnc(CN(C)C(=O)c2ccccc2)n1 | -3.46%
41 | O=C(CN(CC1CCC1)CC(F)(F)F)N1CCCC1 | -6.18%
42 | CSCCN1C(=O)CC(C)(c2ccc(Br)cc2)C1=O (stereo not given) | -5.43%
43 | Cc1nnc(CSCc2ccc(OCC(F)(F)F)nc2)o1 | -4.42%
44 | Cc1ccc(OCC(O)COC2CCOCC2)c(Cl)c1 (stereo not given) | -0.327%
45 | CCc1nc(CN2CCCC2C(=O)NC)cs1 (stereo not given) | -0.35%
46 | Cc1ccc(OCC(O)COC2CCOCC2)c(Br)c1 (stereo not given) | -10.6%
47 | Cc1noc(C(C)SCc2ccccn2)n1 (stereo not given) | -8.37%
48 | CSCCC(NC(=O)c1ccccc1)C(=O)N(C)Cc1ccsc1 (stereo not given) | -7%

Row | Structure (SMILES) | cytotoxicity at 70.5 h
49 | CC(NC(=O)C1CC1)C(=O)N(C)Cc1ccsc1 (stereo not given) | -5.83%
50 | Cc1n[nH]c(C)c1NC(=O)NCc1ccccn1 | -8.47%
51 | CN(C)S(=O)(=O)NCC1CCN(Cc2ccccc2F)CC1 | -9.47%
52 | COc1ccccc1CCN(C)Cc1nc(N)nc(N(C)C)n1 | -11.2%
53 | Cn1cc(NC(=O)Cc2ccccc2Br)cc1C(N)=O | -2.69%
54 | CCCc1nc(C)c(C(=O)NS(=O)(=O)c2ccc(C#N)cc2)s1 | -5.99%
55 | CN(Cc1nnc(C2CC2)n1C)C(=O)c1ccnc(OC2CCC2)c1 | -10.6%
56 | Cn1cc(Br)c(=O)c(NS(=O)(=O)c2cc(F)ccc2Cl)c1 | 6.1%
57 | Cc1cc(C)c2c(OCC(=O)NC(C)C)nn(C)c2n1 | 14.7%
58 | CCN(CC)C(=O)CCNC(=O)N1CCC(c2ccccc2)C1 (stereo not given) | -6.27%
59 | CCc1nc(CN(C)CC2CCN(CCO)CC2)no1 | -9.2%
60 | Cc1cc(CN2CCN(C(=O)CCc3cccc(F)c3F)CC2)on1 | -6.52%
61 | CN(CCOc1cccc(CN)c1)C1CCOCC1 | -8.25%
62 | O=C(CCc1ccsc1)NCC1CCN(c2ccccc2)C1 (stereo not given) | 2.35%
63 | CC(Cn1cccn1)NC(=O)Nc1ccc(F)cc1 (stereo not given) | -4.1%
64 | O=C1CN(Cc2nnc(-c3ccc(Br)o3)o2)CCN1 | -7.06%
65 | CC(Cn1cccn1)NC(=O)Nc1ccc(N(C)C)nc1 (stereo not given) | 19.1%
66 | Cc1cc(NC(=O)NCCc2cccs2)n(C)n1 | -1.92%
67 | Cc1cnc(C(=O)N(CCN(C)C)Cc2ccc(Cl)cc2)cn1 | -6.08%
68 | CCC(C)NC(=O)Nc1ccc(CN2CCOC2=O)cc1 (stereo not given) | 18.8%
69 | O=C(NCCCO)Nc1cccc(Cl)c1F | -8.31%
70 | CCOc1cc(C)nc(N2CCN(Cc3nccn3C)CC2)n1 | -0.961%
71 | Cn1ccnc1-c1cccc(NC(=O)NCCN2CCOCC2)c1 | -3.53%
72 | Cc1ccc(NC(=O)Cn2cc(I)cn2)cc1 | 15.3%

Row | Structure (SMILES) | cytotoxicity at 70.5 h
73 | CN(C)C(=O)CNC(=O)Nc1cccc(Cl)c1SC(F)F | -4.52%
74 | Cn1nc2c(cc1=O)CN(CC(=O)Nc1ccc(Cl)cn1)CC2 | -3.49%
75 | Cn1cc(-c2csc(N3CCOCC3)n2)cn1 | -3.47%
76 | CS(=O)(=O)CCSc1cccc(C#N)c1 | -4.4%
77 | Cn1cc(-c2csc(N3CCN(C(=O)OC(C)(C)C)CC3)n2)cn1 | -2.04%
78 | O=C(Nc1ccnc(OC2CCOC2)c1)C1CCC1 (stereo not given) | -2.33%
79 | CC(C)c1cnc(CNc2c(F)cccc2-n2cccn2)o1 | -4.44%
80 | COCc1ccccc1NC(=O)[C@@H]1CCCN1C(=O)c1ccco1 | -8.02%
81 | Cc1n[nH]c(C2CN(CC(=O)NCCc3ccsc3)CCO2)n1 (stereo not given) | -1.23%
82 | O=C(c1ccc(Br)o1)N1CCN(Cc2ccc(OC(F)(F)F)cc2)CC1 | -2.19%
83 | CC(C)COC(C)C(=O)N1CCN(S(C)(=O)=O)CC1 (stereo not given) | -0.767%
84 | CN(C)S(=O)(=O)N1CCN(c2nccc(C(F)(F)F)n2)CC1 | -0.547%
85 | CCc1noc(C(C)N(C)CC(=O)Nc2c(C)cccc2C)n1 (stereo not given) | -4.56%
86 | COc1ccc(NC(=O)N2CCN(c3ncccn3)CC2)cn1 | -5.14%
87 | CCSc1cc(C(=O)NCCC(=O)Nc2ccccn2)ccn1 | -3.16%
88 | Cc1ccc(C(=O)NC(C)CN2CCCC2=O)c(=O)[nH]1 (stereo not given) | -5.25%
89 | Cc1nn(C)c(N(C)C)c1CNCC(O)c1ccccc1 (stereo not given) | 0.0769%
90 | CC(C#N)CSc1ccccc1NCC(=O)Nc1ccc(F)cc1 (stereo not given) | 2.62%
91 | COc1ccc(NC(C)C(=O)N2CCN(c3ncccn3)CC2)cn1 (stereo not given) | 2.09%
92 | NS(=O)(=O)N1CCc2ccc(NC(=O)Cc3ccc(F)cc3)cc21 | 6.47%
93 | COCC(NC(=O)c1cc[nH]n1)c1cccc(C(F)(F)F)c1 (stereo not given) | -0.606%
94 | Cc1ccc(S(=O)(=O)NC(=O)c2cccc3c2OCCO3)c(C)c1 | -3.86%
95 | Cc1ccn(-c2ccccc2NCc2ncc[nH]2)n1 | 3.45%
96 | CCSc1cc(C(=O)NCc2ccccc2O)ccn1 | -4.36%

Row | Structure (SMILES) | cytotoxicity at 70.5 h
97 | CC(c1cccnc1)N(C)Cc1csc(-c2ccccn2)n1 (stereo not given) | 8.67%
98 | CC(C)(C)C(=O)NCCC(=O)NC(C)(C)c1ccc2c(c1)OCCO2 | 1.98%
99 | CC(OCC(F)(F)F)C(=O)N1CCCCC1 (stereo not given) | 0.611%
100 | CCc1noc(C(C)N(C)CC(=O)Nc2ccc(C)cc2)n1 (stereo not given) | -4.51%
101 | CCc1nc(CN2CCCC(N(C)Cc3cnc(C)s3)C2)no1 (stereo not given) | -2%
102 | Cc1ccn(-c2ccccc2NCc2cccnc2C)n1 | -7.82%
103 | O=C(CCc1ccccn1)N1CCc2cc(Cl)cc(Cl)c2C1 | 29.3%
104 | CCc1nc(CN2CCCN(c3nc4ccccc4o3)CC2)no1 | 6.35%
105 | O=C(c1cccc(NCCO)c1)N1CCOCC1 | 6.48%
106 | Cc1cc(CNC2CCCN(c3cccnn3)C2)no1 (stereo not given) | 5.47%
107 | NC(=O)c1ccc(N2CCCCC2)c(NC(=O)c2cncc(Br)c2)c1 | -7.05%
108 | N#Cc1ccc(OCCOc2ccccc2C(=O)N2CCOCC2)cc1 | -9.24%
109 | NC(=O)C1CCN(Cn2nc(-c3ccccc3)oc2=O)CC1 | -8.01%
110 | CS(=O)(=O)NCC1CCCN(Cc2ccc(F)c3cccnc23)C1 (stereo not given) | -12.2%
111 | Cc1ccc(C(=O)NC2CCN(Cc3noc(CC(C)C)n3)CC2)s1 | 7.31%
112 | Cc1ccc(-n2nnc(CC(=O)N3CCOCC3)c2C)cc1 | -10.7%
113 | C[C@H]1C[C@@H]2CCN(Cc3ccco3)C[C@H]2O1 | -7.2%
114 | CNC1CCCN(Cc2noc(C3CC3)n2)C1 (stereo not given) | -7.48%
115 | CCC(=O)N1CCC2(CC1)COCCN2Cc1ccc(F)cc1 | -10.7%
116 | CNC(=O)CN1CCOCC12CCN(C(=O)c1ccccc1)CC2 | -5.33%
117 | CC(C)CC(=O)N1CCC2(CC1)COCCN2Cc1ccc(F)cc1 | -11.1%
118 | Cn1cc(CN2CCC3(CCN(c4cnn(C)c4)C3=O)C2)cn1 (stereo not given) | -10.8%
119 | C[C@H]1C[C@H]2CN(Cc3ccccn3)CC[C@@H]2O1 | -3.43%
120 | Cc1ccc(N2CCO[C@H]3CN(Cc4nccs4)C[C@H]32)nn1 | -6.14%
